Results from patent publication US7825121B2, “Piperazine derivatives useful as CCR5 antagonists” (Schering Corporation, priority 1999, dated 2010).
Where a name gives a salt, the structure may show the parent alone. One block for each compound: values may come before it.

Columns and labels:
[1] = biological target: T1, human CCR5 chemokine receptor (Homo sapiens, UniProt P51681); test: CCR5 membrane binding assay (inhibition of RANTES binding); details: 125I-RANTES, membranes from NIH 3T3 cells expressing human CCR5
T1 construct: expressed in transfected cells; host or cells: NIH 3T3 cells (murine), membranes
T1 sequence (P51681 whole entry): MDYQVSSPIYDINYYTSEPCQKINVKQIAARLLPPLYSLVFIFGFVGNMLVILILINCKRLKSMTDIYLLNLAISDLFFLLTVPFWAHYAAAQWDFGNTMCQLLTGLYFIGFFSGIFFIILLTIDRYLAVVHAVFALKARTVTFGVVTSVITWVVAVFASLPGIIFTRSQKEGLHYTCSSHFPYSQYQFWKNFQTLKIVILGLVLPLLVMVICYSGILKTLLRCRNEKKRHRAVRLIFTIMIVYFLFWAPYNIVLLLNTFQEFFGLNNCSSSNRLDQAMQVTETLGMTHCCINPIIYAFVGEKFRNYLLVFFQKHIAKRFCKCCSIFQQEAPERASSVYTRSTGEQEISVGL
Method: CCR5 Membrane Binding Assay:
A high throughput screen utilizing a CCR5 membrane binding assay identifies inhibitors of RANTES binding. This assay utilizes membranes prepared from NIH 3T3 cells expressing the human CCR5 chemokine receptor which have the ability to bind to RANTES, a natural ligand for the receptor. […] Compounds are serially diluted over a wide range of 0.001 ug/ml to 1 ug/ml and tested in triplicates. Reaction cocktails are harvested through glass fiber filters, and washed thoroughly.
In the table, “Ex. No.” stands for “Example Number” and “nM” stands for “nanomolar.”

[2] = Profiling of Vicriviroc and metabolites in plasma, urine and feces, rat; format: in vivo, Rat (Sprague Dawley)
Method: (§1) HPLC column was maintained at room temperature for all LC-MS and LC-MS^n experiments. The mobile phase, which consisted of 95% 10-mM ammonium acetate (pH 6.0) containing 5% acetonitrile (A) and 95% acetonitrile and 5% water (B), was maintained at a constant flow rate (1 mL/min). For all LC-MS experiments, the column effluent was split to divert 20-25% into TSQ Quantum (ThermoElectron, San Jose, Calif.) mass spectrometer and the balance into a Flow Scintillation Analyzer (FSA) analyzer.
(§2) All LC-MS and LC-MS/MS experiments were performed using a TSQ mass spectrometer (ThermoElectron, San Jose, Calif.) nominally operated under the conditions listed below:
(§3) Radiochromatograms from study samples were examined to locate radioactive peaks corresponding to metabolites. After correcting for the delay time (0.2-0.5 min), each radiolabelled peak was examined for possible molecular ions related to the drug and/or its putative metabolites.

[3] = Profiling of Vicriviroc and metabolites in plasma, urine and feces, human; format: in vivo
Method: as §1, §2, §3

[4] = Profiling of Vicriviroc and metabolites in plasma, urine and feces, monkey; format: in vivo, Monkey (Cynomolgus macaque)
Method: as §1, §2, §3

[5] = Excretion of radioactivity after single oral dose of 14C-Vicriviroc, monkey; format: in vivo, Monkey (Cynomolgus macaque); details: 5 mg/kg single oral, total 0-432 hr
Method: (§4) [drawing 410] was synthesized at Schering-Plough Research Institute (Kenilworth, N.J.) and had >97% radiochemical purity.
(§5) Sample Collection: Urine and feces over selected intervals and blood at selected time points were collected from healthy male volunteers, monkeys and rats through 336-hr, 432-hr and 168-hr post dose, respectively. Radioactivity: Total radioactivity was measured using liquid scintillation spectrometer (LSS). Sample Processing for Profiling and Characterization of Metabolites: Sample Pooling: For each species, plasma samples were pooled across subjects/animals by time point. All the other matrices were first pooled for a desired collection interval within each subject/animal and then across subjects/animals to obtain a composite sample containing >90% of the radioactivity excreted in each respective matrix.

[6] = Excretion of radioactivity after single oral dose of 14C-Vicriviroc, rat; format: in vivo, Rat (Sprague Dawley); details: 6 mg/kg single oral, total 0-168 hr
Method: as §4, §5

melting point: 187 to 196 °C
Compound: Cc1ncnc(C)c1C(=O)N1CCC(C)(N2CCN([C@@H](Cc3ccccc3)c3ccc(C(F)(F)F)cc3)[C@@H](C)C2)CC1

melting point: 180 to 188 °C (dec.)
Compound: Cc1ccnc(C)c1C(=O)N1CCC(N2CCN(C(c3ccccc3)c3ccccc3)[C@@H](C)C2)CC1 (as salt: hydrochloride) [Example 3C]

Ki [1]: 9.97 nM
Compound: Cc1ccnc(C)c1C(=O)N1CCC(N2CCN(C(c3ccccc3)c3ccccc3)[C@@H](C)C2)CC1 [Example 3C]

Ki [1]: 30 nM
melting point: 225 °C
Compound: CC[C@@H](c1ccc(OC(F)(F)F)cc1)N1CCN(C2CCN(C(=O)c3c(C)ncnc3C)CC2)C[C@@H]1C [Example 6C]

Ki [1]: 10.5 nM
Compound: Cc1cccc(C)c1C(=O)N1CCC(N2CCN([C@@H](C)c3ccc(I)cc3)[C@@H](C)C2)CC1 [Example 11]

melting point: 180 °C (dec.)
Compound: Cc1cccc(C)c1C(=O)N1CCC(N2CCN([C@@H](C)c3ccc(Cl)cc3)[C@@H](C)C2)CC1 [Example 13]

melting point: 195 °C
Compound: Cc1cccc(C)c1C(=O)N1CCC(N2CCN([C@@H](C)c3ccccc3)[C@@H](C)C2)CC1 [Example 15]

Ki [1]: 60 nM
melting point: 190 °C
Compound: Cc1cccc(C)c1C(=O)N1CCC(N2CCN([C@@H](C)c3ccc(-c4ccccc4)cc3)[C@@H](C)C2)CC1 [Example 16]

melting point: 170 °C (dec.)
Compound: Cc1cccc(C)c1C(=O)N1CCC(N2CCN([C@@H](C)c3ccc(Cc4ccc(Cl)cc4)cc3)[C@@H](C)C2)CC1 [Example 17]

melting point: 210 °C
Compound: CC(=O)c1ccc([C@H](C)N2CCN(C3CCN(C(=O)c4c(N)cccc4Cl)CC3)C[C@@H]2C)cc1 [Example 18]

melting point: 80 to 85 °C
Compound: CC(=O)c1ccc([C@H](C)N2CCN(C3(C)CCN(C(=O)c4c(C)cccc4C)CC3)C[C@@H]2C)cc1 [Example 22]

melting point: 241 °C
Compound: CCC[C@@H](c1ccc(OC(F)(F)F)cc1)N1CCN(C2(C)CCN(C(=O)c3c(C)ncnc3C)CC2)C[C@@H]1C [Example 30A]

melting point: 219 °C
Compound: CCC[C@@H](c1ccc(OC(F)(F)F)cc1)N1CCN(C2(C)CCN(C(=O)c3c(C)cc(NC(=O)NCC)cc3C)CC2)C[C@@H]1C [Example 30B]

melting point: 175 to 178 °C
Compound: Cc1ncnc(C)c1C(=O)N1CCC(C)(N2CCN(C(c3ccccc3)c3ccccc3)[C@@H](C)C2)CC1 [Example 30C]

melting point: 177 to 189 °C
Compound: CCNC(=O)Nc1cc(C)c(C(=O)N2CCC(C)(N3CCN(C(c4ccccc4)c4ccccc4)[C@@H](C)C3)CC2)c(C)c1 [Example 30D]

melting point: 84 to 90 °C
Compound: C[C@H]1CN(C2(C)CCN(C(=O)C3(c4ccc(C#N)cc4)CC3)CC2)CCN1C(c1ccccc1)c1ccccc1 [Example 30E]

melting point: 180 to 192 °C
Compound: Cc1ncnc(C)c1C(=O)N1CCC(C)(N2CCN(C(c3ccc(C(F)(F)F)cc3)c3ccc(C(F)(F)F)cc3)[C@@H](C)C2)CC1 [Example 30F]

melting point: 178 to 188 °C
Compound: CCNC(=O)N(C)c1cc(C)c(C(=O)N2CCC(C)(N3CCN(C(c4ccccc4)c4ccccc4)[C@@H](C)C3)CC2)c(C)c1 [Example 30H]

melting point: 237 °C
Compound: CCC[C@@H](c1ccc(OC(F)(F)F)cc1)N1CCN(C2(C)CCN(C(=O)c3c(C)cccc3C)CC2)C[C@@H]1C [Example 30]

circulating drug derived component in plasma ([2]; rat plasma): only detected in trace quantities
% of the dose in urine ([2]; rat urine): less than 1%
circulating drug derived component in plasma ([3]; human plasma): prominent circulating metabolite
% of the dose in urine ([3]; human urine): 11%
circulating drug derived component in plasma ([4]; monkey plasma): prominent circulating metabolite
% of the dose in urine ([4]; monkey urine): 3%
Compound: Cc1ncnc(C)c1C(=O)N1CCC(C)(N2CCN(C(COC3OC(C(=O)O)C(O)C(O)C3O)c3ccc(C(F)(F)F)cc3)C(C)C2)CC1 (centres unmarked) [Example M35, O-desmethyl-VIC-glucuronide]

Excretion of radioactivity as % of dose, feces ([5]; monkey female): 56.4 % of dose
Excretion of radioactivity as % of dose, urine ([5]; monkey female): 25.8 % of dose
Excretion of radioactivity as % of dose, feces ([5]; monkey male): 48.6 % of dose
Excretion of radioactivity as % of dose, urine ([5]; monkey male): 26.3 % of dose
Excretion of radioactivity as % of dose, feces ([6]; rat female): 72.9 % of dose
Excretion of radioactivity as % of dose, urine ([6]; rat female): 15.6 % of dose
Excretion of radioactivity as % of dose, feces ([6]; rat male): 69.1 % of dose
Excretion of radioactivity as % of dose, urine ([6]; rat male): 18.0 % of dose
Compound: COC[C@@H](c1ccc(C(F)(F)F)cc1)N1CCN(C2(C)CCN(C(=O)c3c(C)ncnc3C)CC2)C[C@@H]1C [^14C-Vicriviroc, 1-[(4,6-dimethyl-5-pyrimidinyl)carbonyl]-4-[4-[2-methoxy-1 (R)-[4-(trifluoromethyl)phenyl]ethyl]-3(S)-methyl-1-piperazinyl]-4-methylpiperidine]
